The results in this text go back to patent US7696221B2, “Thienoisoquinoline-phenylsulfonamides and their use as ER-NFκB inhibitors” (Wyeth LLC, priority 2004, dated 2010).

One series concerns IL-6. Briefly: IL-6 assay (ELISA) in Ad5-wt-ER infected HAECT-1 cells. The class given is cell-based, human. Conditions: for ER/IL-6 % Eff: relative to the maximal inhibition observed with E2; for pIC50: IL-1 treated. The protocol:
(§1) After four hours, cells were washed with EBM-BSA and incubated overnight in the same medium. […] After two hours, cells were washed and incubated at 34° C. for 1 hour. Cells were then washed, trypsinized, counted and resuspended in 95% FBS/5% dimethylsulfoxide at a concentration of 4×10^6 cells/ml, frozen as 1 or 5 ml aliquots in cryo-vials and stored at −150° C. Control (no ER infection) cells were processed as above without Ad5-wt-hER virus infection. […] Cells were subsequently washed with 300 l of Dulbecco's phosphate buffered saline and lysed in 50 l of Cell Culture Lysis Reagent (Promega). Luciferase was determined on a Wallac Victor^2 Luminometer (Gaithersburg, Md.) using 10 l of lysate and mixing with 100 l of Promega Luciferase Assay reagent. Creatine kinase was determined from the rate of increase in A340 following addition of 100 l of CK assay reagent (Sigma, cat. […] For IC50 and EC50 calculations, mean IL-6, luciferase or CK values versus log10 of the compound concentration were fitted to a four parameter logistic equation. The IC50/EC50 value, ‘Hill slope’, upper and lower limits of the curve were iteratively estimated.

Another series relates to creatine kinase. Briefly: Creatine kinase assay in Ad5-wt-ER infected HAECT-1 cells. Format: cell-based, human. The conditions noted are these: for pEC50: Homo sapiens, HAECT1, N/O = activity not observed at doses tested, read-out: ER/CK EC50; for ER/CK % Eff*: relative to the maximal stimulation observed with E2; for ER/CK EC50: N/O = activity not observed at doses tested. The protocol:
as §1

The subject of the next series is NF-κB. Briefly: NFκB-luciferase assay in Ad5-wt-ER infected HAECT-1 cells. The class given is cell-based, human. Conditions: for pIC50: IL-1 treated, read-out: ER/NF-KB-luc IC50; for ER/NF-KB-luc % Eff*: relative to the maximal inhibition observed with E2. The protocol:
T-175 flasks of 100% confluent HAECT-1 cells (immortalized human aortic endothelial cells) were washed with 8 ml of HBSS (HEPES buffered saline solution) and infected for four hours with 6 ml of a 1:10 dilution of Ad5-wt-hER virus (an adenovirus transfection vector that mediates CMV promoter driven expression of human ER) in phenol red free Endothelial Cell Basal medium (Clonetics, San Diego Calif., Catalog # CC-3129) containing 0.25% bovine serum albumin (EBM-BSA). After four hours, cells were washed with EBM-BSA and incubated overnight in the same medium. Following overnight incubation, cells were washed with EBM-BSA and infected for 2 hours with 6 ml of a 1:10 dilution of Ad5-3×(NF B).Luc virus (Adenovirus luciferase expression vector driven by 3 repeats of the MHC NF b site 5′ to the thymidine kinase promoter) in EBM-BSA. After two hours, cells were washed and incubated at 34° C. for 1 hour. Cells were then washed, trypsinized, counted and resuspended in 95% FBS/5% dimethylsulfoxide at a concentration of 4×10^6 cells/ml, frozen as 1 or 5 ml aliquots in cryo-vials and stored at −150° C. Control (no ER infection) cells were processed as above without Ad5-wt-hER virus infection.
ER infected HAECT-1 cells or control cells were thawed, diluted 42× in warm EBM-BSA, plated into 96-well plates at 0.1 ml/well and incubated for 4 h at 34° C. Test compounds were added to the cells as 2× stocks in EBM-BSA containing 2 ng/ml IL-1 (R&D Systems) and plates were returned to the incubator (34° C.). After 15-20 h, 100 l aliquots of media were removed from the cells and assayed for IL-6 content using a BioSource human IL-6 ELISA Kit. Cells were subsequently washed with 300 l of Dulbecco's phosphate buffered saline and lysed in 50 l of Cell Culture Lysis Reagent (Promega). Luciferase was determined on a Wallac Victor^2 Luminometer (Gaithersburg, Md.) using 10 l of lysate and mixing with 100 l of Promega Luciferase Assay reagent. Creatine kinase was determined from the rate of increase in A340 following addition of 100 l of CK assay reagent (Sigma, cat. No 47-10) to the remainder of the cell lysate.
For IC50 and EC50 calculations, mean IL-6, luciferase or CK values versus log10 of the compound concentration were fitted to a four parameter logistic equation. The IC50/EC50 value, ‘Hill slope’, upper and lower limits of the curve were iteratively estimated.

Where [1] appears, read: Ad5-wt-ER infected HAECT-1 cells.
[2] abbreviates: Homo sapiens, HAECT1, Ad5-wt-ER infected HAECT-1 cells.

pEC50, pIC50: −log10 of the molar value.

Consider `CCc1cc2c(s1)-c1ccccc1C(CC)N2S(=O)(=O)c1ccc(O)cc1` (stereo not drawn), for which the melting point lay in the range of 119 to 122 °C.

`CC1c2ccccc2-c2sccc2N1S(=O)(=O)c1ccc(O)cc1` (stereo not drawn) [Example 4, 4-[(5-Methylthieno[3,2-c]isoquinolin-4(5H)-yl)sulfonyl]phenol] displayed a melting point of 163 to 165 °C. For the same compound, the “ER/IL-6 % Eff” value in the series on IL-6 (setting [1]) was found to be 172%. In addition, the pIC50 in the series with IL-6 (setting [2]) was 7.18. In the series with creatine kinase, the pEC50 is 7.00 and the “ER/CK % Eff*” value is reported as 42%.

Regarding `CCC1c2ccccc2-c2sccc2N1S(=O)(=O)c1ccc(O)cc1` (stereo not drawn) [Example 5, 4-[(5-Ethylthieno[3,2-c]isoquinolin-4(5H)-yl)sulfonyl]phenol], the melting point fell in the range of 169 to 171 °C. For the same compound, the “ER/IL-6 % Eff” value in the series on IL-6 (setting [1]) worked out at 174%. The pIC50 in the series with IL-6 (setting [2]) is 7.67. Also, in the series on creatine kinase, the “ER/CK EC50” value is “N/O”.

For `CC1c2ccccc2-c2sc(Br)cc2N1S(=O)(=O)c1ccc(O)cc1` (stereo not drawn) [Example 6, 4-[(2-Bromo-5-methylthieno[3,2-c]isoquinolin-4(5H)-yl)sulfonyl]phenol], the melting point is 209 to 211 °C. The “ER/IL-6 % Eff” value in the series with IL-6 (setting [1]) stood at 162%. The compound also had a pIC50 with IL-6 (setting [2]) of 7.55. Moreover, in the series with creatine kinase, the “ER/CK EC50” value is “N/O”.

For `C[C@@H]1c2ccccc2-c2sc(Br)cc2N1S(=O)(=O)c1ccc(O)cc1` [Example 7, 4-{[(5R)-2-bromo-5-methylthieno[3,2-c]isoquinolin-4-(5H)-yl]sulfonyl}phenol], in the series with IL-6 (setting [1]), the pIC50 was 5.23 and the “ER/IL-6 % Eff” value was found to be 161%. Also, in the series on NF-κB, the pIC50 was 5.84 and the “ER/NF-KB-luc % Eff*” value was found to be 84%. Moreover, the “ER/CK EC50” value in the series with creatine kinase is “N/O”.

With `C[C@H]1c2ccccc2-c2sc(Br)cc2N1S(=O)(=O)c1ccc(O)cc1` [Example 8, 4-{[(5S)-2-bromo-5-methylthieno[3,2-c]isoquinolin-4-(5H)-yl]sulfonyl}phenol], in the series on IL-6 (setting [1]), the pIC50 was 8.05 and the “ER/IL-6 % Eff” value worked out at 164%. Besides, in the series with NF-κB, the pIC50 is 7.72 and the “ER/NF-KB-luc % Eff*” value is recorded as 92%. The “ER/CK EC50” value with creatine kinase is recorded as “N/O”.

In turn, `CCC1c2ccccc2-c2sc(Br)cc2N1S(=O)(=O)c1ccc(O)cc1` (stereo not drawn) [Example 9, 4-[(2-Bromo-5-ethylthieno[3,2-c]isoquinolin-4(5H)-yl)sulfonyl]phenol] showed a melting point of 183 to 185 °C. Further, the “ER/IL-6 % Eff” value with IL-6 (setting [1]) is on record as 194%. The compound also showed a pIC50 in the series with IL-6 (setting [2]) of 8.11. In addition, in the series on creatine kinase, the pEC50 is 7.33 and the “ER/CK % Eff*” value stood at 33%.

`CCC1c2ccccc2-c2sc(-c3ccsc3)cc2N1S(=O)(=O)c1ccc(O)cc1` (stereo not drawn) [Example 10, 4-[(5-Ethyl-2-thien-3-ylthieno[3,2-c]isoquinolin-4(5H)-yl)sulfonyl]phenol]: the melting point lay within 195 to 196 °C.

For the compound `CCC1c2ccccc2-c2sc(-c3ccccc3)cc2N1S(=O)(=O)c1ccc(O)cc1` (stereo not drawn) [Example 11, 4-[(5-Ethyl-2-phenylthieno[3,2-c]isoquinolin-4(5H)-yl)sulfonyl]phenol], the “ER/IL-6 % Eff” value in the series on IL-6 (setting [1]) is recorded as 132%. Moreover, the pIC50 in the series with IL-6 (setting [2]) was 7.61. In the series with creatine kinase, the pEC50 was 7.82 and the “ER/CK % Eff*” value was determined as 63%.

For the compound `CC1c2ccccc2-c2sc(Br)cc2N1S(=O)(=O)c1ccc(O)c(Br)c1` (stereo not drawn) [Example 12, 2-Bromo-4-[(2-bromo-5-methylthieno[3,2-c]isoquinolin-4(5H)-yl)sulfonyl]phenol], in the series with IL-6 (setting [1]), the “ER/IL-6 % Eff” value was 197%. Besides, the pIC50 with IL-6 (setting [2]) is 5.83. In the series on creatine kinase, the pEC50 was 5.81 and the “ER/CK % Eff*” value is listed as 35%.

Consider `C[C@]12CC[C@@H]3c4ccc(O)cc4CC[C@H]3[C@@H]1CC[C@@H]2O` [Example E2, 17β-estradiol, reference compound], for which, in the series on IL-6 (setting [1]), the pIC50 was 8.77 and the “ER/IL-6 % Eff” value is listed as 100%. In the series with creatine kinase, the pEC50 is 8.24 and the “ER/CK % Eff*” value is listed as 100%.
